US20040009905A1 (B.M.R.A. Corporation B.V., priority 1998, published 2004)
“Also recorded” adds a separate entry of the source. Like-named read-outs stand apart in the source and are kept apart here. The star is where a group is joined. aminooxyacetyl = NOCC(=O)*

Tests used:
domestic pigs [1] = details: pig, in vivo
Procedure: Experiments were performed on 16 domestic pigs of both sexes (body weight 20-30 kg). The animals were premedicated with atropine (0.05 mg/kg) and ketamine (Ketalar, ParkeDavis, USA, 20 mg/kg i.m.) and anaesthetized with thiopentone (5 mg/kg i.v.). A tracheostomy was performed and artificial ventilation was started using a volume regulated ventilator (type Siemens 900). During surgery, continuous i.v. infusion of Ringer's solution, thiopentone (15 mg/kg/h) and pancuronium bromide (0.25 mg/kg/h) was performed.
Catheters were placed in the femoral artery for systemic blood pressure and heart rate monitoring and in the femoral vein for thiopentone and fluid administration (300 ml/h). […] Nasal arterial blood flow was monitored with a Transonic flow probe (RB 143) placed around the sphenopalatine artery and connected to a T 202 ultrasonic blood flowmeter (Transonic System Inc., Ithaca, N.Y., USA).
Heart rate and systemic arterial blood pressure using the femoral artery catheter connected to a pressure transducer.
Sphenopalatine arterial blood flow using an Ultrasonic flow meter probe (see above).

domestic pigs [2] = details: pig, in vivo; remark: listed apart in the source
Procedure: Experiments were performed on 16 domestic pigs of both sexes (body weight 20-30 kg). The animals were premedicated with atropine (0.05 mg/kg) and ketamine (Ketalar, ParkeDavis, USA, 20 mg/kg i.m.) and anaesthetized with thiopentone (5 mg/kg i.v.). A tracheostomy was performed and artificial ventilation was started using a volume regulated ventilator (type Siemens 900). During surgery, continuous i.v. infusion of Ringer's solution, thiopentone (15 mg/kg/h) and pancuronium bromide (0.25 mg/kg/h) was performed. […]
2. […] Airway pressure was measured from a catheter positioned at the tip of the endotracheal tube. Transpulmonary pressure was determined by a differential pressure transducer (Hewlett-Packard 267B) taking the difference between tracheal and oesophagus pressure. Tidal volume was determined by integration of the respiratory flow signal measured with a pneumotachograph (Gould Godard, model 17212) by means of a heated Fleisch flow transducer #2 connected to the endotracheal tube. Transpulmonary pressure, tidal volume and flow were continuously recorded on a 4-channel recorder (Hewlett-Packard, 7754 GB). Total airflow resistance across the lungs (raw) was determined by dividing the difference in transpulmonary pressure by inspiratory plus expiratory flow at mid-tidal volume. […]

[3] = Circular dichroism spectroscopy of conformational properties; format: physicochemical; details: in TFE, 295K
Procedure: The conformational properties of TASP-V were studied in solution mainly by circular dichroism (CD) spectroscopy under various experimental conditions. In order to detect effects of template attachment on secondary and tertiary structure formation, the corresponding single (not template attached) peptide IV was also studied.
CD spectra were recorded on a Jobin Yvon Dichrograph Mark VI calibrated with D(+)-10-camphorsulfonic acid. All measurements were performed at 295K using quartz cells with a path length of 0.1 cm and each spectrum was the average of three repeated scans between 185 nm to 250 nm, with an integration time of Is for 0.8 nm steps. The spectra were corrected by substraction of the background solvent spectrum obtained under identical experimental conditions and smoothed for clarity of display. CD intensities are expressed as mean residue ellipticities (deg cm2 dmol-1), calculated by dividing the total molar ellipticities by the number of amino acids in the peptide.

NPY Y2 receptor = molecular target: T1, NPY Y2 receptor (Homo sapiens, UniProt P49146); assay: Y2 radioreceptor binding assay (125I-NPY displacement, LN319 cells); details: FIG. 7
T1 construct: endogenous in cells; host or cells: LN319 (human glioblastoma)
T1 sequence (P49146 1-381): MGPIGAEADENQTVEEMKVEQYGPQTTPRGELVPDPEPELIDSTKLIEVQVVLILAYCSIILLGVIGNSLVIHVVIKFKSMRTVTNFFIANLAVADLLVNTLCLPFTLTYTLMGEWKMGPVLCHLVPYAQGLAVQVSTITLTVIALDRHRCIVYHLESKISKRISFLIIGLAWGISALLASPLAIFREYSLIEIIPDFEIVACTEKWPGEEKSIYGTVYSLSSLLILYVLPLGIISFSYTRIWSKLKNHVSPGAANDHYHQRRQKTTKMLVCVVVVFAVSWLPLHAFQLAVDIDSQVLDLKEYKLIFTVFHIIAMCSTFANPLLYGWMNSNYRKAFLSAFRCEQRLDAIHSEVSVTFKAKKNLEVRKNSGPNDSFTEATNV
Procedure: Tissue culture media were purchased from Life Technologies (Basel, Switzerland) and fetal calf serum was obtained from Seromed (Berlin, Germany). 70% confluent cells were washed with PBS and harvested using 0.15% Trypsin containing 0.4 mM EDTA. Cells were further diluted 1/3 and plated onto either 60 mm cell culture dishes (Nunc, Denmark) or 12-mm glass coverslips (Huber and Co, AG, Reinach, Switzerland). Media were changed every 3 days. A human glioblastoma cell line, LN319, was used for Y2 binding studies (Greber, et al., Br. J. Pharmacol. 113:737-740 (1994)). Prior to performing binding assays, adhered LN319 cells were washed extensively with phosphate buffered saline. […] After centrifugation at 600 g for 15 minutes at a temperature of 4° C., the pellet was resuspended in the harvesting buffer. […] Incubation proceeded at room temperature for 45 minutes. Bound radioactivity was determined after separating the unbound fraction by centrifugation.

**Q.** For `CC[C@H](C)[C@H](NC(=O)[C@H](Cc1ccc(O)cc1)NC(=O)[C@H](Cc1c[nH]cn1)NC(=O)[C@H](CCCNC(=N)N)NC(=O)[C@H](CC(C)C)NC(=O)[C@H](C)NC(=O)[C@H](CO)NC(=O)[C@H](Cc1ccc(O)cc1)NC(=O)CNC(=O)CON=CC(=O)NCCCC[C@@H]1NC(=O)CNC(=O)[C@H](CCCCNC(=O)C=NOCC(=O)NCC(=O)N[C@@H](Cc2ccc(O)cc2)C(=O)N[C@@H](CO)C(=O)N[C@@H](C)C(=O)N[C@@H](CC(C)C)C(=O)N[C@@H](CCCNC(=N)N)C(=O)N[C@@H](Cc2c[nH]cn2)C(=O)N[C@@H](Cc2ccc(O)cc2)C(=O)N[C@H](C(=O)N[C@@H](CC(N)=O)C(=O)N[C@@H](CC(C)C)C(=O)N[C@H](C(=O)N[C@H](C(=O)N[C@@H](CCCNC(=N)N)C(=O)N[C@@H](CCC(N)=O)C(=O)N[C@@H](CCCNC(=N)N)C(=O)N[C@@H](Cc2ccc(O)cc2)C(N)=O)[C@@H](C)O)[C@@H](C)CC)[C@@H](C)CC)NC(=O)c2ccc3cccc(c3c2)CNC1=O)C(=O)N[C@@H](CC(N)=O)C(=O)N[C@@H](CC(C)C)C(=O)N[C@H](C(=O)N[C@H](C(=O)N[C@@H](CCCNC(=N)N)C(=O)N[C@@H](CCC(N)=O)C(=O)N[C@@H](CCCNC(=N)N)C(=O)N[C@@H](Cc1ccc(O)cc1)C(N)=O)[C@@H](C)O)[C@@H](C)CC` [TASP-V], which “Change in heart rate or mean arterial blood pressure” value (domestic pigs [1]) is on record?
**A.** did not induce any change

**Q.** What about the “Change in heart rate or mean arterial blood pressure” value (domestic pigs [2]) of the same compound?
**A.** did not induce any change

**Q.** For “IV: single, not template attached aminooxyacetyl NPY21-36 amide peptide (IV in FIG. 5) (aminooxyacetyl-YSALRHYINLITRQRY-NH2; SMILES CC[C@H](C)[C@H](NC(=O)[C@H](Cc1ccc(O)cc1)NC(=O)[C@H](Cc1c[nH]cn1)NC(=O)[C@H](CCCNC(=N)N)NC(=O)[C@H](CC(C)C)NC(=O)[C@H](C)NC(=O)[C@H](CO)NC(=O)[C@H](Cc1ccc(O)cc1)NC(=O)CON)C(=O)N[C@@H](CC(N)=O)C(=O)N[C@@H](CC(C)C)C(=O)N[C@H](C(=O)N[C@H](C(=O)N[C@@H](CCCNC(=N)N)C(=O)N[C@@H](CCC(N)=O)C(=O)N[C@@H](CCCNC(=N)N)C(=O)N[C@@H](Cc1ccc(O)cc1)C(N)=O)[C@@H](C)O)[C@@H](C)CC; UniProt P01303 49-64, looked up, fragment)”, which “Helicity / secondary structure content by CD” value [3] is on record?
**A.** < 30%

**Q.** For “Leu31, Pro34 NPY: Leu31- and Pro34-substituted NPY, shown to be a Y1 agonist”, which “Affinity / binding to the Y2 receptor (in words)” value (NPY Y2 receptor) is on record?
**A.** poor affinity binding; also recorded: bound poorly
